Source: publication PMC8026785, “The pharmacokinetics of [^18F]UCB-H revisited in the healthy non-human primate brain” (EJNMMI Research, 2021)
“And” between values parts separate entries of the source, which are not always exact repeats. Equal entries are not always repeated.

Biological target: T1, SV2A (Macaca fascicularis, UniProt Q4R4X3)
T1 construct: The current study evaluates [^18F]UCB-H pharmacokinetics in healthy NHPs; from tissue; host or cells: brain of living healthy cynomolgus monkeys (in vivo PET)
Test: Brain PET kinetic modelling (1TCM, 2TCM, 2TCM-c, Logan), test-retest
Format: in vivo, cynomolgus monkeys (Macaca fascicularis)
Description: All four non-human primates (NHP) underwent a 2-h (2 h) test and retest PET scan; two NHP underwent an additional 4-h (4 h) retest PET scan. Three NHP underwent one 4-h (4 h) displacement PET scan. Arterial blood sampling was performed during test and retest scans with PET imaging spaced by at least 3 weeks between each scan. To this end, the femoral artery opposite to the saphenous vein used for radioligand injection was cannulated. For the 2-h (2 h) scans, we collected in total 28 blood samples of 1 mL: 16 samples during the first 5 min followed by […] every 5 min and […] every 10 min. For the 4 h scans, we collected an additional 6 samples every 20 min during the last two hours (34 samples in total). Larger samples (2 – 3 mL) were collected at 5, 15, 30, 60, 90, 120 min (2 h) and at 180, 240 min (4 h) for metabolite analysis. Displacement of [^18F]UCB-H was done by intravenous (IV) administration 90 min after [^18F]UCB-H injection of a bolus of 30 mg/kg LEV, or of 80 µg/kg (≈250 nmol/kg) or 5 mg/kg (≈15 µmol/kg) of cold [^19F]-UCB-H. Full experimental design of all NHP is outlined in Additional file 1: Table 1.
PET imaging was performed on the microPET FOCUS220 (Siemens) under standard anesthesia and monitoring procedures. Data acquisition started with the IV bolus injection of [^18F]UCB-H (32.9 ± 1.0 MBq/kg, 0.35 ± 0.07 µg/kg). Dynamic PET images were reconstructed using standard OSEM-2D algorithms while correcting for radioactive decay, scatter, attenuation and detectors inhomogeneity, which were measured prior to PET scanning using respectively ^57Co and ^68Ge external sources.
PET image analysis was performed using PMOD software version 3.8 (PMOD Technologies Ltd., Zurich, Suisse). After individual co-registration of PET-MR images, a cynomolgus atlas published by Ballanger and coworkers was normalized to PET images to extract time activity curves in different brain regions. Volumes of interest (VOI) were cerebral white matter (16.7 cm^3), striatum (0.24 cm^3), thalamus (0.89 cm^3), cerebellum (3.83 cm^3), frontal—(2.50 cm^3), parietal—(5.35 cm^3), and temporal (8.22 cm^3) cortex, and whole brain (72.2 cm^3) as a composite region of all regions in the atlas. [^18F]UCB-H pharmacokinetics were evaluated by analyzing the time activity curves of the test- and retest scans using 1- and 2-tissue compartment models (unconstrained and constrained with global K1/k2 coupled fit across all regions, further referred to as 2TCM and 2TCM-c), and Logan graphical analysis with a fixed t* at 60 min [33] using the arterial plasma input function corrected for radio-metabolites to derive the volume of distribution in each region. Percentage standard error (%SE) was estimated from the theoretical parameter covariance matrix. Only reliable estimates (%SE less than 25%) were included in the current analyses. For the three drug studies, percent displacement of the total activity in the whole brain was estimated relative to an average baseline constructed from the two 4 h baseline studies. Briefly, Standardized Uptake Value (SUV) time activity curves (TACs) were calculated for the two baseline and the three displacement studies. Then, each curve was normalized to the SUV at t = 90 min, corresponding to the timeframe immediately before the administration of the drugs in the displacement studies. Baseline curves were averaged and the percent displacement of total activity was calculated as (baseline-displacement)/baseline at a given time post drug administration (see “Results”).
Statistical analysis was performed using R software (version 3.3.1.). Plasma, intact parent fraction and time activity curves were statistically compared between subjects using a one-factor variance analysis. Absolute Test–Retest variability (aTRV) of PET quantification parameters was calculated as ABS(test—retest) / AVERAGE(test, retest). […]

[1] = Cerebellum, Retest, individual NHP
[2] = Cerebellum, Test, individual NHP
[3] = Frontal Cortex, Retest, individual NHP
[4] = Frontal Cortex, Test, individual NHP

T1 sequence (Q4R4X3 whole entry): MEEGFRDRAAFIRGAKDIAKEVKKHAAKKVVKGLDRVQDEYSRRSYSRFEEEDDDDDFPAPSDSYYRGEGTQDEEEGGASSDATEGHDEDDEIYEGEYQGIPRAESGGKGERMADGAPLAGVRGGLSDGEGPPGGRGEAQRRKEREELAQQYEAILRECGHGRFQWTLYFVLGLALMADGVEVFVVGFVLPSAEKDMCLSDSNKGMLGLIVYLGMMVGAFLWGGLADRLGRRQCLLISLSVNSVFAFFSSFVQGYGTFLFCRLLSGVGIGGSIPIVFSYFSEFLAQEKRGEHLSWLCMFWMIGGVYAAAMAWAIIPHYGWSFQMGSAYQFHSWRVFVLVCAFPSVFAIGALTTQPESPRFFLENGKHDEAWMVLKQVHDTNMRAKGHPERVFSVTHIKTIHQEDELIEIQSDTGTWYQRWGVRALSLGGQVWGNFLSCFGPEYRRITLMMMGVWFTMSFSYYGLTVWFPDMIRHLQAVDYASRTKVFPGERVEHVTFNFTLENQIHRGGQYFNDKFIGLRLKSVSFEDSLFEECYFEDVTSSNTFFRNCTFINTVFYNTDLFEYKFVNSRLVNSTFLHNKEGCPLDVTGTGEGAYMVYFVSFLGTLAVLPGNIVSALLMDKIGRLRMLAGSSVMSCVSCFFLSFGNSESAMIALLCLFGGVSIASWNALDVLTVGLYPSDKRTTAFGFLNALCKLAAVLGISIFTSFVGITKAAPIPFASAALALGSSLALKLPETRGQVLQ

aTRV of VT (1TCM): above 10%
ICC of VT, overall (2TCM-c): ~ 0.4
aTRV of VT, overall (2TCM-c): ~ 17%
k3/k4 (surrogate of BPND), average (2TCM-c, average): 1.07 ± 0.02 and 1.1
ICC of Logan (t* = 60) VT (Cerebellum): 0.32
aTRV of Logan (t* = 60) VT (Cerebellum): 14%
VT (2TCM) [1]: 12.28 ml/cm^3
k3/k4 (2TCM-c) [1]: 1.64 and 0.80
VT (1TCM) (Cerebellum, Retest, mean): 10.4 mL/cm^3
VT (2TCM) (Cerebellum, Retest, mean): 12.3 mL/cm^3
VT (2TCM-c) (Cerebellum, Retest, mean): 13.3 mL/cm^3
VT (Logan (t* = 60)) (Cerebellum, Retest, mean): 11.1 mL/cm^3
k3/k4 (BPND) (2TCM-c) (Cerebellum, Retest, mean): 1.22
VT (2TCM) [2]: 10.64 ml/cm^3 and 10.48 ml/cm^3
VT (2TCM-c) [2]: 9.72 ml/cm^3
k3/k4 (2TCM) [2]: 0.87
k3/k4 (2TCM-c) [2]: 1.24
VT (1TCM) (Cerebellum, Test, mean): 9.8 mL/cm^3
VT (2TCM) (Cerebellum, Test, mean): 10.6 mL/cm^3
VT (2TCM-c) (Cerebellum, Test, mean): 9.70 mL/cm^3
VT (Logan (t* = 60)) (Cerebellum, Test, mean): 11.2 mL/cm^3
k3/k4 (BPND) (2TCM-c) (Cerebellum, Test, mean): 1.24
K1/k2 (2TCM) [3]: 12.79 ml/cm^3 and 10.20 ml/cm^3
k3/k4 (2TCM-c) [3]: 2.10 and 1.07 and 0.78
VT (2TCM) [4]: 12.58 ml/cm^3 and 19.94 ml/cm^3
k3/k4 (2TCM) [4]: 0.56
k3/k4 (2TCM-c) [4]: 1.63 and 1.51 and 0.61
ICC of 2TCM-c VT (Frontal cortex): 0.84
ICC of Logan (t* = 60) VT (Frontal cortex): 0.89
aTRV of 2TCM-c VT (Frontal cortex): 11%
aTRV of Logan (t* = 60) VT (Frontal cortex): 11%
VT (1TCM) (Frontal cortex, Retest, mean): 13.8 mL/cm^3
Compound: O=C1C[C@H](c2cc(F)c(F)c(F)c2)CN1Cc1ccncc1[18F] [[^18F]UCB-H]
K1 (2TCM) [1]: 0.62 ml/cm^3 /min and 0.26 ml/cm^3 /min and 0.34 ml/cm^3 /min and 0.36 ml/cm^3 /min
K1 (2TCM-c) [1]: 0.58 ml/cm^3 /min and 0.24 ml/cm^3 /min and 0.34 ml/cm^3 /min and 0.36 ml/cm^3 /min
K1/k2 (2TCM) [1]: 6.41 ml/cm^3 and 10.80 ml/cm^3 and 8.77 ml/cm^3
K1/k2 (2TCM-c) [1]: 4.64 ml/cm^3 and 9.07 ml/cm^3 and 10.70 ml/cm^3 and 7.25 ml/cm^3
VT (1TCM) [1]: 12.10 ml/cm^3 and 9.16 ml/cm^3 and 11.41 ml/cm^3 and 8.78 ml/cm^3
VT (2TCM-c) [1]: 12.24 ml/cm^3 and 18.89 ml/cm^3 and 8.78 ml/cm^3
VT (Logan) [1]: 12.38 ml/cm3 and 11.31 ml/cm3 and 11.82 ml/cm3 and 8.96 ml/cm3
K1 (2TCM) [2]: 0.22 ml/cm^3 /min and 0.35 ml/cm^3 /min and 0.39 ml/cm^3 /min and 0.17 ml/cm^3 /min
K1 (2TCM-c) [2]: 0.23 ml/cm^3 /min and 0.33 ml/cm^3 /min and 0.39 ml/cm^3 /min and 0.17 ml/cm^3 /min
K1/k2 (2TCM) [2]: 5.68 ml/cm^3 and 6.39 ml/cm^3 and 10.81 ml/cm^3 and 6.69 ml/cm^3
K1/k2 (2TCM-c) [2]: 4.35 ml/cm^3 and 8.22 ml/cm^3 and 10.99 ml/cm^3 and 7.86 ml/cm^3
VT (1TCM) [2]: 8.70 ml/cm^3 and 9.24 ml/cm^3 and 12.07 ml/cm^3 and 9.02 ml/cm^3
VT (Logan) [2]: 10.54 ml/cm3 and 10.32 ml/cm3 and 13.27 ml/cm3 and 10.85 ml/cm3
K1 (2TCM) [3]: 0.45 ml/cm^3 /min and 0.42 ml/cm^3 /min and 0.31 ml/cm^3 /min and 0.37 ml/cm^3 /min
K1 (2TCM-c) [3]: 0.48 ml/cm^3 /min and 0.45 ml/cm^3 /min and 0.31 ml/cm^3 /min and 0.37 ml/cm^3 /min
K1/k2 (2TCM-c) [3]: 4.64 ml/cm^3 and 9.07 ml/cm^3 and 10.70 ml/cm^3 and 7.25 ml/cm^3
VT (1TCM) [3]: 14.34 ml/cm^3 and 16.78 ml/cm^3 and 11.35 ml/cm^3 and 12.88 ml/cm^3
VT (2TCM) [3]: 14.38 ml/cm^3 and 12.14 ml/cm^3 and 12.88 ml/cm^3
VT (2TCM-c) [3]: 14.39 ml/cm^3 and 18.59 ml/cm^3 and 12.71 ml/cm^3 and 12.90 ml/cm^3
VT (Logan) [3]: 14.05 ml/cm3 and 20.21 ml/cm3 and 11.72 ml/cm3 and 13.18 ml/cm3
K1 (2TCM) [4]: 0.24 ml/cm^3 /min and 0.53 ml/cm^3 /min and 0.38 ml/cm^3 /min and 0.22 ml/cm^3 /min
K1 (2TCM-c) [4]: 0.25 ml/cm^3 /min and 0.55 ml/cm^3 /min and 0.38 ml/cm^3 /min and 0.22 ml/cm^3 /min
K1/k2 (2TCM) [4]: 8.05 ml/cm^3 and 13.17 ml/cm^3 and 10.76 ml/cm^3 and 11.87 ml/cm^3
K1/k2 (2TCM-c) [4]: 4.35 ml/cm^3 and 8.22 ml/cm^3 and 10.99 ml/cm^3 and 7.86 ml/cm^3
VT (1TCM) [4]: 10.97 ml/cm^3 and 18.41 ml/cm^3 and 12.04 ml/cm^3 and 13.68 ml/cm^3
VT (2TCM-c) [4]: 11.41 ml/cm^3 and 18.77 ml/cm^3 and 14.10 ml/cm^3
VT (Logan) [4]: 12.20 ml/cm3 and 19.36 ml/cm3 and 13.14 ml/cm3 and 15.28 ml/cm3
